Laboratory results taken from US6593342B1, “Pharmaceutical compositions comprising 2-quinolones” (Laboratoire L. Lafon, priority 1998, dated 2003).

Columns and labels:
[1] = test system: hormone-sensitive mouse mammary adenocarcinoma MXT (HS-MXT); assay: In vivo antitumor activity, mouse mammary adenocarcinoma HS-MXT
Description: (§1) 4.—In Vivo Antitumor Activity in Combination With a Cytotoxic Agent
(§2) The tests were carried out on models of:
hormone-sensitive mouse mammary adenocarcinoma MXT (HS-MXT),
(§3) in the presence or absence of cytotoxic agents such as cyclophosphamide, etoposide, doxorubicin or vincristine.
(§4) When the MTD value of a product was determined, its in vivo antitumor activity was characterized at doses of MTD/2, MTD/4 and MTD/8 on the model of mouse mammary adenocarcinoma HS-MXT and on the model of lymphoma P 388.
(§5) In all the examples presented below, irrespective of the model (mammary adenocarcinoma HS-MXT or lymphoma P 388), the control condition is represented by a batch of 9 mice to which is administered for 5 consecutive weeks and at a rate of 5 administrations (Monday, Tuesday, Wednesday, Thursday and Friday) per week a volume of 0.2 ml of physiological saline containing the solvent used to dissolve the various compounds of formulae (I) and (Ia) used.
The following parameters were determined in these tests:
(§6) i)—The survival rate of the mice
(§7) This survival rate was calculated in the form of a ratio T/C:
(§8) This ratio represents the average survival time of the median mouse from the batch of treated mice relative to the average survival time of the median mouse from the batch of control mice. Thus, a molecule induces a significant (P<0.05) increase in the survival of the animals when the index T/C exceeds 130%. Conversely, it has a toxic effect when this value of T/C is less than 70%.
ii)—The tumor growth [lacuna] by measuring the area of the grafted HS-MXT or P 388 tumors twice a week (Monday and Friday). This area is calculated by multiplying the values of the largest two perpendicular axes of the tumor. The value of these axes is measured using a sliding caliper.
The model of hormone-sensitive MXT (HS-MXT) mouse mammary adenocarcinoma grafted onto 4- to 6-week-old B6D2F1/JIco mice is derived from the milk ducts of the mammary gland (Watson C. et al. Cancer Res. 1977; 37: 3344-48).
Compound 1 is administered alone. The first injection of the product is carried out on the seventh day post-grafting (D7) for four consecutive weeks at a rate of 5 injections per week (Monday, Tuesday, Wednesday, Thursday and Friday) and at a dose of 20 mg/kg.
Cyclophosphamide (CPA) is administered alone. The first injection of the product is carried out on the fourteenth day post-grafting (D14) for three consecutive weeks at a rate of 3 injections per week (Monday, Wednesday and Friday) and at a dose of 10 mg/kg.
Compound 1 is co-administered with cyclophosphamide. In this case, the first injection of compound 1 is carried out on the seventh day post-grafting (D7) for four consecutive weeks at a rate of 5 injections per week (Monday, Tuesday, Wednesday, Thursday and Friday) at a dose of 20 mg/kg, and the first injection of cyclophosphamide is carried out on the fourteenth day post-grafting (D14) for three consecutive weeks at a rate of 3 injections per week (Monday, Wednesday and Friday) at a dose of 10 mg/kg.
Etoposide (ETO) is administered alone. The first injection of the product is carried out on the fourteenth day post-grafting (D14) for three consecutive weeks at a rate of 3 injections per week (Monday, Wednesday and Friday) and at a dose of 10 mg/kg.
Doxorubicin (DOX) is administered alone. The first injection of the product is carried out on the fourteenth day post-grafting (D14) for three consecutive weeks at a rate of 3 injections per week (Monday, Wednesday and Friday) and at a dose of 5 mg/kg.
Compound 1 is co-administered with etoposide.

lymphoma P 388 = assay: In vivo antitumor activity, lymphoma P 388; parameters: species or system mouse; details: Table IX; subcutaneous P 388 in CDF1 mice; compound 1 or 20 40 mg/kg 5/week from D5, 5 weeks; VCR 0.63 mg/kg 3/week from D5, 3 weeks
Description: as §1, §2, §3, §4, §5, §6, §7, §8
4- to 6-week-old CDF1 mice are grafted with a piece of P 388 tumor (from a tumor bank maintained in the laboratory) subcutaneously into the right flank on day D0. In order to be under conditions close to clinical reality, we waited until the 5th day post-grafting (D5) before starting the treatment. The reason for this was that, after this period of time, the subcutaneous P 388 tumors are palpable.
Compound 1 is administered alone. The first injection of the product is carried out on the 5th day post-grafting (D5) at a rate of 5 injections per week (Monday, Tuesday, Wednesday, Thursday and Friday) for five consecutive weeks-and at a dose of 40 mg/kg.
Compound 20 is administered alone. […]

[2] = Table V, HS-MXT in B6D2F1/JIco mice, compound 1 20 mg/kg 5/week from D7, 4 weeks, ETO 10 mg/kg or DOX 5 mg/kg 3/week from D14, 3 weeks

Row | melting point [°C] | Compound | T/C (survival) [1, 2] [%] | also measured
1 | – | O=P1(N(CCCl)CCCl)NCCCO1 (centres unmarked) [CPA, Cyclophosphamide] | – | T/C (survival) ([1]; Table IV, HS-MXT in B6D2F1/JIco mice, compound 1 20 mg/kg 5 injections/week from D7, 4 weeks, CPA 10 mg/kg 3 injections/week from D14, 3 weeks): 122%; Tumor area, reduction (−) or increase (+) compared with control ([1]; Table VI, HS-MXT tumors, 31st day after graft, 19 administrations of compound 1 (20 mg/kg), 8 of cyclophosphamide (10 mg/kg)): −23.6%
2 | 144 to 145 | COc1cc(OC)c2cc(-c3ccc(OS(=O)(=O)C(F)(F)F)cc3)c(=O)n(C)c2c1 [Compound 45] | – | –
3 | 212 to 213 | Cc1ccc2[nH]c(=O)c(-c3ccccc3)cc2c1 [Compound 48, 6-Methyl-3-phenyl-1,2-dihydro-2-quinolinone] | – | –
4 | – | COc1cccc2c1C(=O)c1c(O)c3c(c(O)c1C2=O)C[C@@](O)(C(=O)CO)C[C@@H]3O[C@H]1C[C@H](N)[C@H](O)[C@H](C)O1 [DOX, Doxorubicin] | 92.5 | –
5 | – | COc1cc([C@@H]2c3cc4c(cc3[C@@H](O[C@@H]3O[C@@H]5CO[C@@H](C)O[C@H]5[C@H](O)[C@H]3O)[C@H]3COC(=O)[C@H]23)OCO4)cc(OC)c1O [ETO, Etoposide] | 130 | T/C (survival) ([1]; Table VII, HS-MXT, compound 21 40 mg/kg 5/week from D7, 5 weeks, ETO 10 mg/kg 3/week from D7, 3 weeks): 124%
6 | – | CC[C@]1(O)C[C@H]2CN(CCc3c([nH]c4ccccc34)[C@@](C(=O)OC)(c3cc4c(cc3OC)N(C=O)[C@H]3[C@@](O)(C(=O)OC)[C@H](OC(C)=O)[C@]5(CC)C=CCN6CC[C@]43[C@@H]65)C2)C1 [VCR, Vincristine, reference compound] | – | T/C (survival) (lymphoma P 388): 122%
